Measurements as given in ChEMBL document CHEMBL4507268 (2021).

Key:
Conditions in all cases: Compound concentration 1.0 uM
[1] = target: Protein kinase C eta type (Homo sapiens) (UniProt P24723)
[2] = target: T1, Protein kinase C epsilon type (Homo sapiens) (UniProt Q02156)
T1 sequence (whole entry): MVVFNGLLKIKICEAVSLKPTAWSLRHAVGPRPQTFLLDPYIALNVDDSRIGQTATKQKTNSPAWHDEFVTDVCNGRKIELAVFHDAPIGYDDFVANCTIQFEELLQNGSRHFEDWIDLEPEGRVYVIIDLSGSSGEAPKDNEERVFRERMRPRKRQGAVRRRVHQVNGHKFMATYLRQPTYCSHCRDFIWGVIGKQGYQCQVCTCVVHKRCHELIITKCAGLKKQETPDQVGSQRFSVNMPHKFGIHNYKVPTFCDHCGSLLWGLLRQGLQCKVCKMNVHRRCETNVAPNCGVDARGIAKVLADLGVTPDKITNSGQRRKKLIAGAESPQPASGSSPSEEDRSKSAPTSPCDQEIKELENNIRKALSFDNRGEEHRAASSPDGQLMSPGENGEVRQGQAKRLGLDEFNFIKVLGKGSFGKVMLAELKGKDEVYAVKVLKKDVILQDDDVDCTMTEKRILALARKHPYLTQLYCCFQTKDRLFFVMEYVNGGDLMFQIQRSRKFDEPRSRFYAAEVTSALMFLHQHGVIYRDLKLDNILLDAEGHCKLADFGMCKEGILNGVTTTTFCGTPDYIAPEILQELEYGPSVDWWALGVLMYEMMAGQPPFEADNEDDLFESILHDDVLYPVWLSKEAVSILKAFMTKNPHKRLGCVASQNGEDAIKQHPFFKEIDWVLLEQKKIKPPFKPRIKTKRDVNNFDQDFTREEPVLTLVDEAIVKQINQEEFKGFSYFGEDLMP

[3] = target: Platelet-derived growth factor receptor beta (Homo sapiens) (UniProt P09619)
[4] = target: RAC-alpha serine/threonine-protein kinase (Homo sapiens) (UniProt P31749)
[5] = target: T2, Myosin light chain kinase (Homo sapiens) (UniProt Q32MK0)
T2 sequence (whole entry): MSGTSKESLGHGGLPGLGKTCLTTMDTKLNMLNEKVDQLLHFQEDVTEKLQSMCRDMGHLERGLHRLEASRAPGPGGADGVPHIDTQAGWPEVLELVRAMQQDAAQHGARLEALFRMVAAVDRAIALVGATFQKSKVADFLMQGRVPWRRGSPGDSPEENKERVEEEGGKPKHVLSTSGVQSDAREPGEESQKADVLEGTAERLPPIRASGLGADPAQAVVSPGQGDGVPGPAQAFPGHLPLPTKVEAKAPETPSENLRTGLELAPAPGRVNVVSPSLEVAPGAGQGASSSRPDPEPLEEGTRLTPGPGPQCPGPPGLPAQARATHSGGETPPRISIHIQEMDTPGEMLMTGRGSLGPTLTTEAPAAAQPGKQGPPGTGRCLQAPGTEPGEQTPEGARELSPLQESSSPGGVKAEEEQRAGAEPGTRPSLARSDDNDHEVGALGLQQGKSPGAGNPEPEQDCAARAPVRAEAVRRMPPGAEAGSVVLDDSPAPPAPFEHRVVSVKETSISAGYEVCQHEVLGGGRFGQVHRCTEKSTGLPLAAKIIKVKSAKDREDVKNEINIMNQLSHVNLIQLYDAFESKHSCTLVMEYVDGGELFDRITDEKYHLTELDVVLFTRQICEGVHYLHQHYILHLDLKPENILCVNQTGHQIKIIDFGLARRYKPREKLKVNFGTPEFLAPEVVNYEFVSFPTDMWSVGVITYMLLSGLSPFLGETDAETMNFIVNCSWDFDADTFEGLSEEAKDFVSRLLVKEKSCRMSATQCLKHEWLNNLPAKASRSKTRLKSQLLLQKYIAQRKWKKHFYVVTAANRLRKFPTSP

[6] = target: T3, Serine/threonine-protein kinase BRSK2 (Homo sapiens) (UniProt Q8IWQ3)
T3 sequence (whole entry): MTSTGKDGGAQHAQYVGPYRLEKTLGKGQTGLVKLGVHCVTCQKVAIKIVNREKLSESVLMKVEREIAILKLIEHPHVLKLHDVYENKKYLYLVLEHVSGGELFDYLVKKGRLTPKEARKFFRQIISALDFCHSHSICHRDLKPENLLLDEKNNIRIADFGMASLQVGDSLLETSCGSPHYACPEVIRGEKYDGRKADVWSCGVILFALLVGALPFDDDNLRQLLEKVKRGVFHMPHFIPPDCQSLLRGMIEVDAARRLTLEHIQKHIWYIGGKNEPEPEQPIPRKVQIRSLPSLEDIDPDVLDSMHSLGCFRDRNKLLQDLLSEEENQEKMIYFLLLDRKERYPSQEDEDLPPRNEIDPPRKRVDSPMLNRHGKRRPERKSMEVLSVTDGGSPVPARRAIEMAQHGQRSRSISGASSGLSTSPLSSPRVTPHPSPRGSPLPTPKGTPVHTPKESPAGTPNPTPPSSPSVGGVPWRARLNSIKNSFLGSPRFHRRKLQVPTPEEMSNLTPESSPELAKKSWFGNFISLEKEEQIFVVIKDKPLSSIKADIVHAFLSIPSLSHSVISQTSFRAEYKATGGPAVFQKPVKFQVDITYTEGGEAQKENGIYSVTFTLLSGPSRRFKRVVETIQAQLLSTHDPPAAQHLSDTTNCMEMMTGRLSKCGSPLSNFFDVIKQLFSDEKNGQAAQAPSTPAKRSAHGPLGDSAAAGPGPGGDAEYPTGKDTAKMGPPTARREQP

[7] = target: Serine/threonine-protein kinase MARK2 (Homo sapiens) (UniProt Q7KZI7)

Measured: % residual kinase activity

Chain of RAC-alpha serine/threonine-protein kinase (Homo sapiens) (P31749 whole entry): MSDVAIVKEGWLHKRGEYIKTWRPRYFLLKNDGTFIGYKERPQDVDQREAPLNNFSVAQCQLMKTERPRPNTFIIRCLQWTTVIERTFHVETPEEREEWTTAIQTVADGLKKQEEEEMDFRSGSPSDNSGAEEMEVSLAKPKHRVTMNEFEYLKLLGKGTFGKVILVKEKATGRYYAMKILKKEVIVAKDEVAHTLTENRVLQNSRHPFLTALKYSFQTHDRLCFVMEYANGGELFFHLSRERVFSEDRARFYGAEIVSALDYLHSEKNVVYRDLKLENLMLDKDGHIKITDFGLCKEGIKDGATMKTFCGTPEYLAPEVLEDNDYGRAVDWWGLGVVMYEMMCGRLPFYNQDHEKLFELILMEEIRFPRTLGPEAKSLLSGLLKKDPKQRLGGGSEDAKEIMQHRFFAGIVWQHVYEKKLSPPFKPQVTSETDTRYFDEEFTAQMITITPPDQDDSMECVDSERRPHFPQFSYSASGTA
Chain of Protein kinase C eta type (Homo sapiens) (P24723 whole entry): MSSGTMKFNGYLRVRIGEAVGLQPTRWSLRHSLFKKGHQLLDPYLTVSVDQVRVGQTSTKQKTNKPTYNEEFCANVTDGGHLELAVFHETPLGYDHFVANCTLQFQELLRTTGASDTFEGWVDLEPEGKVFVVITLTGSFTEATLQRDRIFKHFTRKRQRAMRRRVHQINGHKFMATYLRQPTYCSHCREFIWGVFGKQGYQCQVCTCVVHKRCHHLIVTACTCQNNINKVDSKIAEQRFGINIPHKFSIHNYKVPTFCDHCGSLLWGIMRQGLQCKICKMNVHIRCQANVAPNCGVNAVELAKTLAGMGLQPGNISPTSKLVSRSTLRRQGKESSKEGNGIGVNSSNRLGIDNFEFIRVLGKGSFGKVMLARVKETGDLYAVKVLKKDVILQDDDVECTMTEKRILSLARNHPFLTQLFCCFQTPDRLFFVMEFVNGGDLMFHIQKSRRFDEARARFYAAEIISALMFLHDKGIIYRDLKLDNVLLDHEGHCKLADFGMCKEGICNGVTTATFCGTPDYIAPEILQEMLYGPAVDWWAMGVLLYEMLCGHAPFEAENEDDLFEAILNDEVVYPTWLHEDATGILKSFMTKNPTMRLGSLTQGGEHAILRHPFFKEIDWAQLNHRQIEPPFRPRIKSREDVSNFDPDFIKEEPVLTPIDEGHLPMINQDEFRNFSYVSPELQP
Chain of Platelet-derived growth factor receptor beta (Homo sapiens) (P09619 whole entry): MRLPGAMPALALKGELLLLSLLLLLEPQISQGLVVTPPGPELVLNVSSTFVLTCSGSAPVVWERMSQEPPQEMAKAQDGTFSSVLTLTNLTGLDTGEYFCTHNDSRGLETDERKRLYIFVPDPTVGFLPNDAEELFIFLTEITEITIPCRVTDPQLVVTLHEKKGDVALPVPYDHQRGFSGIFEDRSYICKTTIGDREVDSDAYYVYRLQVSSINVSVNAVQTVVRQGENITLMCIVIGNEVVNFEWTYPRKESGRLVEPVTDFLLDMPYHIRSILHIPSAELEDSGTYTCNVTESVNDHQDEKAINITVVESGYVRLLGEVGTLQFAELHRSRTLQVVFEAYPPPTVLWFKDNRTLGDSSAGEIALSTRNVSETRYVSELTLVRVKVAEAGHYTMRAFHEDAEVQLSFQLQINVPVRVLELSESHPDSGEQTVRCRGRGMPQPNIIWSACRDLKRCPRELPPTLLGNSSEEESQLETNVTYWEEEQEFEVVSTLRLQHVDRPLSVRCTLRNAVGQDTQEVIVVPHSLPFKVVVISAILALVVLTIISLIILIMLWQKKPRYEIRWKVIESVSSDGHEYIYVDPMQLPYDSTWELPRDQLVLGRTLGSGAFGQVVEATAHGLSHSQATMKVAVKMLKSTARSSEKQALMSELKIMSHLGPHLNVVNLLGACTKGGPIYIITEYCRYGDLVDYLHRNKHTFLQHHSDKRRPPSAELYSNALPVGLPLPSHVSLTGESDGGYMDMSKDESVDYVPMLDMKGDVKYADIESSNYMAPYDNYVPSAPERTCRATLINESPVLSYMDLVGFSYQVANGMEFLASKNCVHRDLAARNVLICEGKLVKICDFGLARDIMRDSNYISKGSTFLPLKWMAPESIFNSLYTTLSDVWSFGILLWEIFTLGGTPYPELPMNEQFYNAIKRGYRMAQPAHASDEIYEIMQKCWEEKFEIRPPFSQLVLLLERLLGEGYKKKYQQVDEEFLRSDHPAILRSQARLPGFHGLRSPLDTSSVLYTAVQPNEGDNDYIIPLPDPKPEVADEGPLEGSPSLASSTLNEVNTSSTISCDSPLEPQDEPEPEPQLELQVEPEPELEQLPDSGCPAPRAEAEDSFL
Chain of Serine/threonine-protein kinase MARK2 (Homo sapiens) (Q7KZI7 whole entry): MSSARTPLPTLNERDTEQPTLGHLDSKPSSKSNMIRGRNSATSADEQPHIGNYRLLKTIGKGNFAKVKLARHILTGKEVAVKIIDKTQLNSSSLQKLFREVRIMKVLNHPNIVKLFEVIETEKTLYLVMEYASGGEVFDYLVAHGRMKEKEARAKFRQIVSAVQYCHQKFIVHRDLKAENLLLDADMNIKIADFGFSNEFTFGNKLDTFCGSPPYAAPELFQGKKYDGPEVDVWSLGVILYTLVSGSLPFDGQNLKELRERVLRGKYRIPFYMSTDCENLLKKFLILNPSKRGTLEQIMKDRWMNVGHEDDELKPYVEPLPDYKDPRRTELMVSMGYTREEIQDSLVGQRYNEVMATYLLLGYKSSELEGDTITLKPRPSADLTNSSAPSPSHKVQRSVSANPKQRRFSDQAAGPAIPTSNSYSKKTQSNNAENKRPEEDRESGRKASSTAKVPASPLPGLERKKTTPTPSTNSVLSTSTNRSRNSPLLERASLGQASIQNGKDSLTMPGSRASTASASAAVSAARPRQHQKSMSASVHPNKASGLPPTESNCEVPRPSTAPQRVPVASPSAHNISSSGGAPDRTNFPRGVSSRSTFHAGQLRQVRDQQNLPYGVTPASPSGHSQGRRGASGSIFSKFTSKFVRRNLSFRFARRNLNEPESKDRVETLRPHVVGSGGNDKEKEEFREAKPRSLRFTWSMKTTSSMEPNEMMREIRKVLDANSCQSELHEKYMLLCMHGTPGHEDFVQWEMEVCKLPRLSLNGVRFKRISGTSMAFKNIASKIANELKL

CN1CCN(c2cnc3c(C4CCN(C(=O)c5ccc(OC(F)(F)F)cc5N)CC4)ncnc3c2)CC1 [BAY-885]
inactive: [1] 115% | [2] 104% | [3] 107% | [4] 113% | [5] 107% | [6] 102% | [7] 113%
